Consider 37 compounds from patent US7494996B2 (priority 2000, dated 2009).

In one experiment the test system is Pyricularia oryzae. In words: whole plant or invertebrate. The conditions noted are these: 100 is total disease control, 0 is no disease control; for Rice Blast (RB) protectant fungicide data, percent control: 300 g/ha, greenhouse. It is filed as in vivo.
The subject of the next experiment is Sphaerotheca fuliginea. As to the kind of experiment: Cucumber Powdery Mildew (CPM) protectant test in the greenhouse. It is filed as in vivo. The conditions noted are these: 100 is total disease control, 0 is no disease control; for Cucumber Powdery Mildew (CPM) protectant fungicide data, percent control: 300 g/ha. On the procedure:
Plants used in the fungicide testing program were grown in 2-¼-inch (5.7-cm). square pots containing RediEarth propagation substrate. The plants were raised under greenhouse conditions. The rice plants were 12-days-old and cucumbers were 13-days-old at the time of spraying with chemical treatments.
The sample of the experimental chemical was weighed and dissolved in an acetone-methanol-water solution (A/M/W at 1:1:2 ratio by volume).
After sprayer calibration, the test solutions were poured into the fungicide sprayer. The fungicide sprayer contains three spray nozzles, located approximately 10 cm above and to the sides of the plants. The spray produced by the nozzles results in uniform coverage of both the upper and lower parts of the plant leaves. After spraying, the treated plants were placed in a drying chamber for 4 hours, prior to sorting.
Cucumber Powdery Mildew (CPM), caused by the fungus Sphaerotheca fuliginea, was maintained on large cucumber plants. For inoculum preparation, five to eight leaves depending on size, completely covered with powdery mildew spores, were collected. The leaves were placed in a glass jar and covered with 500 ml of water, containing 5 drops of Tween-80. The material was filtered through two layers of cheesecloth to remove leaf fragments. The spore count was adjusted to 2×10^5 spores per ml.
Cucumber plants, cv. “Bush Champion,” were used for this test. The plants were thinned to one per pot after the cotyledons were fully developed. Two days before the test, the small leaves and meristem region were removed, leaving only the cotyledons and one large true leaf.
The protectant tests required that the cucumber plants be inoculated 1 day after spraying with the chemical treatment. The plants were inoculated with a hand-held spray bottle with the suspension of fungal spores. The leaves were lightly misted on the upper surface from two different spray directions. Disease development occurred in the greenhouse.
After seven days, the plants were evaluated for percent of disease control. The results are reported as percent control; 100 is total disease control, 0 is no disease control.

On to `C#CCN1CC(=O)N(CC(F)(F)F)N=C1c1cc(Cl)cc(Cl)c1` [Compound 169], for which, in the experiment on Pyricularia oryzae, the “Rice Blast (RB) protectant fungicide data, percent control” value (shortened to “Rice Blast … percent control”) was 50 percent control. Moreover, in the experiment with Sphaerotheca fuliginea, the “Cucumber Powdery Mildew (CPM) protectant fungicide data, percent control” value (shortened to “Cucumber Powdery Mildew … percent control”) is 0 percent control.

On to `CCCCN1N=C(c2cc(C)cc(C)c2)NCC1=O` [Compound 295], for which, in the experiment on Pyricularia oryzae, the “Rice Blast … percent control” value was 99 percent control. Besides, the “Cucumber Powdery Mildew … percent control” value in the experiment with Sphaerotheca fuliginea came to 50 percent control.

In the case of `CN1N=C(c2ccc(C(F)(F)F)cc2)NCC1=O` [Compound 122], in the experiment on Pyricularia oryzae, the “Rice Blast … percent control” value came out at 75 percent control. The “Cucumber Powdery Mildew … percent control” value in the experiment on Sphaerotheca fuliginea was 75 percent control.

Take `CCCCN1N=C(C)NC(c2ccc(C(C)(C)C)cc2)C1=O` (centres unmarked) [Compound 95]: in the experiment on Pyricularia oryzae, the “Rice Blast … percent control” value is 25 percent control. In the experiment with Sphaerotheca fuliginea, the “Cucumber Powdery Mildew … percent control” value is reported as 75 percent control.

Turning to `CCCCN1N=C(c2cc(Cl)cc(Cl)c2)NCC1=O` [Compound 104], the “Rice Blast … percent control” value with Pyricularia oryzae amounted to 99 percent control. Further, in the experiment with Sphaerotheca fuliginea, the “Cucumber Powdery Mildew … percent control” value was 80 percent control.

`C#CCN1CC(=O)N(CCCC)N=C1c1cc(Cl)cc(Cl)c1` [Compound 131]: the “Rice Blast … percent control” value with Pyricularia oryzae is recorded as 80 percent control. Besides, the “Cucumber Powdery Mildew … percent control” value with Sphaerotheca fuliginea was 75 percent control.

In the case of `O=c1cnc(-c2ccccc2Cl)nn1CC(F)(F)F` [Compound 267], the “Rice Blast … percent control” value in the experiment on Pyricularia oryzae is on record as 80 percent control. In addition, the “Cucumber Powdery Mildew … percent control” value in the experiment with Sphaerotheca fuliginea was 85 percent control.

As to `CCCCn1nc(-c2ccccc2OC)ncc1=O` [Compound 283], the “Rice Blast … percent control” value with Pyricularia oryzae was found to be 90 percent control. In the experiment on Sphaerotheca fuliginea, the “Cucumber Powdery Mildew … percent control” value is listed as 50 percent control.

For the compound `CCCCC1=NN(c2ccc(Cl)cc2)C(=O)CN1` [Compound 204], the “Rice Blast … percent control” value in the experiment with Pyricularia oryzae was determined as 75 percent control. In addition, the “Cucumber Powdery Mildew … percent control” value with Sphaerotheca fuliginea stood at 85 percent control.

For `CCCCN1N=C(c2cc(Cl)cc(Cl)c2)N(C(=O)OCI)CC1=O` [Compound 16, 1-(n-butyl)-3-(3,5-dichlorophenyl)-4-(iodomethyloxycarbonyl)-4,5-dihydro-1,2,4-triazin-6-one], the pest or weed control at 300 g/ha in the experiment with Pyricularia oryzae (Pyricularia oryzae, topical, 144 h, read-out: Rice Blast (RB) protectant fungicide data, percent control, protectant, 300 g/ha, greenhouse) came to 90%; with Sphaerotheca fuliginea (Podosphaera fuliginea, topical, 168 h, read-out: Cucumber Powdery Mildew (CPM) protectant fungicide data, percent control), 75%.

On to `CCCCN1N=C(c2ccc(Cl)c(Cl)c2)N(C(=S)Oc2ccccc2)CC1=O` [Compound 178], for which the “Rice Blast … percent control” value in the experiment on Pyricularia oryzae turned out to be 75 percent control. The “Cucumber Powdery Mildew … percent control” value in the experiment with Sphaerotheca fuliginea is 0 percent control.

For `CCCCn1nc(-c2ccc(Cl)cc2)ncc1=O` [Compound 258], in the experiment with Pyricularia oryzae, the “Rice Blast … percent control” value is on record as 100 percent control. Besides, the “Cucumber Powdery Mildew … percent control” value with Sphaerotheca fuliginea worked out at 75 percent control.

Take `CCCCN1N=C(C)NC(c2ccccc2C)C1=O` (centres unmarked) [Compound 76]: the “Rice Blast … percent control” value with Pyricularia oryzae is reported as 0 percent control. The “Cucumber Powdery Mildew … percent control” value in the experiment with Sphaerotheca fuliginea is listed as 25 percent control.

Regarding `CCCCN1N=C(c2ccc(Cl)c(Cl)c2)N(Cc2ccc(OC)c(OC)c2)CC1=O` [Compound 200], in the experiment with Pyricularia oryzae, the “Rice Blast … percent control” value is reported as 85 percent control. In addition, the “Cucumber Powdery Mildew … percent control” value in the experiment with Sphaerotheca fuliginea is 0 percent control.

For `C#CCN1N=C(c2cccc(Br)c2)NCC1=O` [Compound 227], in the experiment on Pyricularia oryzae, the “Rice Blast … percent control” value worked out at 90 percent control. Moreover, the “Cucumber Powdery Mildew … percent control” value in the experiment on Sphaerotheca fuliginea was determined as 75 percent control.

For `CCCN1N=C(c2cc(Cl)cc(Cl)c2)NCC1=O` [Compound 107], the “Rice Blast … percent control” value with Pyricularia oryzae worked out at 99 percent control. In the experiment on Sphaerotheca fuliginea, the “Cucumber Powdery Mildew … percent control” value was 95 percent control.

As to `O=C1CN(CC2CC2)C(c2cccc(Br)c2)=NN1CC1CC1` [Compound 224], the “Rice Blast … percent control” value in the experiment with Pyricularia oryzae turned out to be 75 percent control. Moreover, the “Cucumber Powdery Mildew … percent control” value in the experiment on Sphaerotheca fuliginea stood at 50 percent control.

On to `CS(=O)(=O)N1CC(=O)N(CC(F)(F)F)N=C1c1ccc(Cl)cc1` [Compound 42], for which the “Rice Blast … percent control” value in the experiment with Pyricularia oryzae is recorded as 99 percent control. Further, the “Cucumber Powdery Mildew … percent control” value in the experiment on Sphaerotheca fuliginea was 50 percent control.

Take `Cc1cccc(N2N=C(c3ccc(-c4ccccc4)cc3)NCC2=O)c1` [Compound 186]: the “Rice Blast … percent control” value in the experiment with Pyricularia oryzae was found to be 85 percent control. The “Cucumber Powdery Mildew … percent control” value with Sphaerotheca fuliginea came out at 0 percent control.

For `O=C1CNC(c2ccc(Cl)c(Cl)c2)=NN1CC(F)(F)F` [Compound 99], in the experiment with Pyricularia oryzae, the “Rice Blast … percent control” value worked out at 100 percent control. In the experiment on Sphaerotheca fuliginea, the “Cucumber Powdery Mildew … percent control” value is recorded as 80 percent control.

On to `CC(=O)N1CC(=O)N(CC(F)(F)F)N=C1c1cc(Cl)cc(Cl)c1` [Compound 72], for which the “Rice Blast … percent control” value with Pyricularia oryzae is 75 percent control. In the experiment on Sphaerotheca fuliginea, the “Cucumber Powdery Mildew … percent control” value was 50 percent control.

Take `CCCCN1N=C(C)NC(c2ccccc2)C1=O` (centres unmarked) [Compound 92]: in the experiment with Pyricularia oryzae, the “Rice Blast … percent control” value was 0 percent control. In the experiment on Sphaerotheca fuliginea, the “Cucumber Powdery Mildew … percent control” value worked out at 50 percent control.

As to `CCCCN1N=C(c2ccc(Cl)c(Cl)c2)N(Cc2ccccc2)CC1=O` [Compound 182], in the experiment with Pyricularia oryzae, the “Rice Blast … percent control” value is listed as 85 percent control. Further, the “Cucumber Powdery Mildew … percent control” value with Sphaerotheca fuliginea was 0 percent control.

`O=C1CNC(c2cccc(F)c2)=NN1CC(F)(F)F` [Compound 84]: in the experiment with Pyricularia oryzae, the “Rice Blast … percent control” value amounted to 80 percent control. Also, in the experiment on Sphaerotheca fuliginea, the “Cucumber Powdery Mildew … percent control” value came out at 85 percent control.

Regarding `CCCCN1N=C(c2cc(Cl)cc(Cl)c2)N(C(=O)Oc2ccccc2)CC1=O` [Compound 194], the “Rice Blast … percent control” value with Pyricularia oryzae is listed as 80 percent control. The “Cucumber Powdery Mildew … percent control” value with Sphaerotheca fuliginea is 0 percent control.

For `C#CCN1N=C(c2ccc(Cl)c(Cl)c2)NCC1=O` [Compound 215], the “Rice Blast … percent control” value in the experiment on Pyricularia oryzae stood at 85 percent control. In the experiment on Sphaerotheca fuliginea, the “Cucumber Powdery Mildew … percent control” value is on record as 0 percent control.

On to `CCCCN1N=C(c2ccc(Cl)c(Cl)c2)N(C(=O)Oc2ccccc2)CC1=O` [Compound 173], for which the “Rice Blast … percent control” value in the experiment on Pyricularia oryzae stood at 50 percent control. Moreover, in the experiment with Sphaerotheca fuliginea, the “Cucumber Powdery Mildew … percent control” value was found to be 0 percent control.

Take `CCCCN1N=C(c2cc(Cl)cc(Cl)c2)N(C(=O)OCOC(C)=O)CC1=O` [Compound 118]: the “Rice Blast … percent control” value with Pyricularia oryzae amounted to 90 percent control. Moreover, in the experiment on Sphaerotheca fuliginea, the “Cucumber Powdery Mildew … percent control” value was determined as 0 percent control.

As for `O=C1CNC(c2ccc(-c3csnn3)cc2)=NN1CC(F)(F)F` [Compound 144], in the experiment on Pyricularia oryzae, the “Rice Blast … percent control” value is listed as 85 percent control. Besides, the “Cucumber Powdery Mildew … percent control” value in the experiment with Sphaerotheca fuliginea was determined as 0 percent control.

Take `C=CCN1N=C(c2cc(Cl)cc(Cl)c2)NCC1=O` [Compound 128]: the “Rice Blast … percent control” value in the experiment with Pyricularia oryzae is 90 percent control. The “Cucumber Powdery Mildew … percent control” value in the experiment with Sphaerotheca fuliginea is given as 0 percent control.

Take `CCOCCN1N=C(c2cc(Cl)cc(Cl)c2)NCC1=O` [Compound 108]: in the experiment on Pyricularia oryzae, the “Rice Blast … percent control” value came to 90 percent control. The “Cucumber Powdery Mildew … percent control” value in the experiment on Sphaerotheca fuliginea is 85 percent control.

On to `FC(F)(F)Cn1nc(-c2cccc(Cl)c2)ncc1=S` [Compound 246], for which, in the experiment with Pyricularia oryzae, the “Rice Blast … percent control” value is given as 100 percent control. In addition, the “Cucumber Powdery Mildew … percent control” value with Sphaerotheca fuliginea worked out at 0 percent control.

As for `O=C1CNC(c2cccc(Br)c2)=NN1CC(F)(F)F` [Compound 212], in the experiment with Pyricularia oryzae, the “Rice Blast … percent control” value is reported as 98 percent control. For the same compound, the “Cucumber Powdery Mildew … percent control” value with Sphaerotheca fuliginea turned out to be 85 percent control.

Turning to `CCCCOc1ccc(-c2ncc(=O)n(CCC)n2)cc1` [Compound 280], the “Rice Blast … percent control” value in the experiment with Pyricularia oryzae turned out to be 50 percent control. The “Cucumber Powdery Mildew … percent control” value in the experiment with Sphaerotheca fuliginea is recorded as 0 percent control.

In the case of `O=C1CNC(c2cccc(F)c2)=NN1CC1CC1` [Compound 223], in the experiment with Pyricularia oryzae, the “Rice Blast … percent control” value is listed as 95 percent control. In addition, the “Cucumber Powdery Mildew … percent control” value in the experiment on Sphaerotheca fuliginea turned out to be 80 percent control.

As to `Cc1cc(C)cc(C2=NN(CC(F)(F)F)C(=O)CN2)c1` [Compound 296], in the experiment on Pyricularia oryzae, the “Rice Blast … percent control” value is recorded as 98 percent control. The “Cucumber Powdery Mildew … percent control” value in the experiment with Sphaerotheca fuliginea stood at 75 percent control.

For the compound `CN1N=C(c2ccc(Oc3ccccc3)cc2)NCC1=O` [Compound 156], in the experiment with Pyricularia oryzae, the “Rice Blast … percent control” value stood at 85 percent control. Also, the “Cucumber Powdery Mildew … percent control” value in the experiment with Sphaerotheca fuliginea is recorded as 0 percent control.
